Laboratory results as given in patent US11078202B2, “β-lactamase inhibitor and use thereof” (priority 2018, dated 2021).
Where a name gives a salt, the structure may show the parent alone.

Assays:
Type in all cases: cell-based
[1] = test system: Klebsiella pneumoniae XNWB 0006; test: MIC assay of test compounds combined with imipenem (4 μg/mL); conditions: imipenem 4 μg/mL fixed
In short: (§1)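 We recorded each combination MIC according to CLSI after culturing plates at 35±2 °C for 16-20 h. The inoculum consisted of colonies suspended in 0.9% NaCl (OD600 0.1-0.15) and diluted 300-fold with 1.1×CAMHB, mixed with compound dilutions and the partner β-lactam.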

[2] = test system: Klebsiella pneumoniae XNWB 0001; test: as above; conditions: imipenem 4 μg/mL fixed
In short: as §1

[3] = test system: Klebsiella pneumoniae XNWB 0004; test: as above; conditions: imipenem 4 μg/mL fixed
In short: as §1

[4] = test system: Acinetobacter baumannii XNWB 0007; test: as above; conditions: imipenem 4 μg/mL fixed
In short: as §1

[5] = test system: Klebsiella pneumoniae XNWB 0003; test: as above; conditions: imipenem 4 μg/mL fixed
In short: as §1

[6] = test system: Pseudomonas aeruginosa XNWB 0008; test: as above; conditions: imipenem 4 μg/mL fixed
In short: as §1

[7] = test system: Klebsiella pneumoniae XNWB 0002; test: as above; conditions: imipenem 4 μg/mL fixed
In short: as §1

[8] = test system: Klebsiella pneumoniae XNWB 0005; test: as above; conditions: imipenem 4 μg/mL fixed
In short: as §1

[9] = test system: Klebsiella pneumoniae XNWB 0006; test: MIC assay of test compounds combined with ceftazidime (8 μg/mL); conditions: ceftazidime 8 μg/mL fixed
In short: as §1

[10] = test system: Klebsiella pneumoniae XNWB 0001; test: as above; conditions: ceftazidime 8 μg/mL fixed
In short: as §1

[11] = test system: Klebsiella pneumoniae XNWB 0004; test: as above; conditions: ceftazidime 8 μg/mL fixed
In short: as §1

[12] = test system: Acinetobacter baumannii XNWB 0007; test: as above; conditions: ceftazidime 8 μg/mL fixed
In short: as §1

[13] = test system: Klebsiella pneumoniae XNWB 0003; test: as above; conditions: ceftazidime 8 μg/mL fixed
In short: as §1

[14] = test system: Pseudomonas aeruginosa XNWB 0008; test: as above; conditions: ceftazidime 8 μg/mL fixed
In short: as §1

[15] = test system: Klebsiella pneumoniae XNWB 0002; test: as above; conditions: ceftazidime 8 μg/mL fixed
In short: as §1

[16] = test system: Klebsiella pneumoniae XNWB 0005; test: as above; conditions: ceftazidime 8 μg/mL fixed
In short: as §1

N=C(N)NCc1cc([C@@H]2CC3(CC3)[C@@H]3CN2C(=O)N3OS(=O)(=O)O)no1 [Example 34, (1R,4S)-4-(5-(guanidinomethyl)isoxazol-3-yl)-6-oxo-5,7-diazaspiro[bicyclo[3.2.1]octane-2,1′-cyclopropan]-7-yl sulfate]
C (C: 16-128 μg/mL): The minimum concentration of test compounds combined with ceftazidime (8 μg/mL) for bacteriostasis [12] | The minimum concentration of test compounds combined with ceftazidime (8 μg/mL) for bacteriostasis [14]
A (A: <8 μg/mL): The minimum concentration of test compounds combined with imipenem (4 μg/mL) for bacteriostasis [1] | The minimum concentration of test compounds combined with imipenem (4 μg/mL) for bacteriostasis [2] | The minimum concentration of test compounds combined with imipenem (4 μg/mL) for bacteriostasis [3] | The minimum concentration of test compounds combined with imipenem (4 μg/mL) for bacteriostasis [5] | The minimum concentration of test compounds combined with imipenem (4 μg/mL) for bacteriostasis [7] | The minimum concentration of test compounds combined with imipenem (4 μg/mL) for bacteriostasis [8] | The minimum concentration of test compounds combined with ceftazidime (8 μg/mL) for bacteriostasis [9] | The minimum concentration of test compounds combined with ceftazidime (8 μg/mL) for bacteriostasis [10] | The minimum concentration of test compounds combined with ceftazidime (8 μg/mL) for bacteriostasis [13] | The minimum concentration of test compounds combined with ceftazidime (8 μg/mL) for bacteriostasis [15]
B (B: 8-16 μg/mL): The minimum concentration of test compounds combined with imipenem (4 μg/mL) for bacteriostasis [4] | The minimum concentration of test compounds combined with imipenem (4 μg/mL) for bacteriostasis [6] | The minimum concentration of test compounds combined with ceftazidime (8 μg/mL) for bacteriostasis [11] | The minimum concentration of test compounds combined with ceftazidime (8 μg/mL) for bacteriostasis [16]

N[C@H]1C[C@H](c2nnc([C@@H]3CC4(CC4)[C@@H]4CN3C(=O)N4OS(=O)(=O)O)o2)C1 [Example 16]
B (B: 8-16 μg/mL): The minimum concentration of test compounds combined with imipenem (4 μg/mL) for bacteriostasis [4] | The minimum concentration of test compounds combined with ceftazidime (8 μg/mL) for bacteriostasis [11] | The minimum concentration of test compounds combined with ceftazidime (8 μg/mL) for bacteriostasis [14]
C (C: 16-128 μg/mL): The minimum concentration of test compounds combined with ceftazidime (8 μg/mL) for bacteriostasis [12]
A (A: <8 μg/mL): The minimum concentration of test compounds combined with imipenem (4 μg/mL) for bacteriostasis [1] | The minimum concentration of test compounds combined with imipenem (4 μg/mL) for bacteriostasis [2] | The minimum concentration of test compounds combined with imipenem (4 μg/mL) for bacteriostasis [3] | The minimum concentration of test compounds combined with imipenem (4 μg/mL) for bacteriostasis [5] | The minimum concentration of test compounds combined with imipenem (4 μg/mL) for bacteriostasis [6] | The minimum concentration of test compounds combined with imipenem (4 μg/mL) for bacteriostasis [7] | The minimum concentration of test compounds combined with imipenem (4 μg/mL) for bacteriostasis [8] | The minimum concentration of test compounds combined with ceftazidime (8 μg/mL) for bacteriostasis [9] | The minimum concentration of test compounds combined with ceftazidime (8 μg/mL) for bacteriostasis [10] | The minimum concentration of test compounds combined with ceftazidime (8 μg/mL) for bacteriostasis [13] | The minimum concentration of test compounds combined with ceftazidime (8 μg/mL) for bacteriostasis [15] | The minimum concentration of test compounds combined with ceftazidime (8 μg/mL) for bacteriostasis [16]

N=C1NC[C@H](c2nnc([C@@H]3CC4(CC4)[C@@H]4CN3C(=O)N4OS(=O)(=O)O)o2)N1 [Example 56, (1R,4S)-4-(5-((R)-2-iminoimidazolidin-4-yl)-1,3,4-oxadiazol-2-yl)-6-oxo-5,7-diazaspiro[bicyclo[3.2.1]octane-2,1′-cyclopropan]-7-yl sulfate]
B (B: 8-16 μg/mL): The minimum concentration of test compounds combined with imipenem (4 μg/mL) for bacteriostasis [4] | The minimum concentration of test compounds combined with imipenem (4 μg/mL) for bacteriostasis [6] | The minimum concentration of test compounds combined with ceftazidime (8 μg/mL) for bacteriostasis [14]
C (C: 16-128 μg/mL): The minimum concentration of test compounds combined with ceftazidime (8 μg/mL) for bacteriostasis [12]
A (A: <8 μg/mL): The minimum concentration of test compounds combined with imipenem (4 μg/mL) for bacteriostasis [1] | The minimum concentration of test compounds combined with imipenem (4 μg/mL) for bacteriostasis [2] | The minimum concentration of test compounds combined with imipenem (4 μg/mL) for bacteriostasis [3] | The minimum concentration of test compounds combined with imipenem (4 μg/mL) for bacteriostasis [5] | The minimum concentration of test compounds combined with imipenem (4 μg/mL) for bacteriostasis [7] | The minimum concentration of test compounds combined with imipenem (4 μg/mL) for bacteriostasis [8] | The minimum concentration of test compounds combined with ceftazidime (8 μg/mL) for bacteriostasis [9] | The minimum concentration of test compounds combined with ceftazidime (8 μg/mL) for bacteriostasis [10] | The minimum concentration of test compounds combined with ceftazidime (8 μg/mL) for bacteriostasis [11] | The minimum concentration of test compounds combined with ceftazidime (8 μg/mL) for bacteriostasis [13] | The minimum concentration of test compounds combined with ceftazidime (8 μg/mL) for bacteriostasis [15] | The minimum concentration of test compounds combined with ceftazidime (8 μg/mL) for bacteriostasis [16]

CNCCc1nnc([C@@H]2CC3(CC3)[C@@H]3CN2C(=O)N3OS(=O)(=O)O)o1 [Example 24, (1R,4S)-4-(5-(2-(methylamino)ethyl)-1,3,4-oxadiazol-2-yl)-6-oxo-5,7-diazaspiro[bicyclo[3.2.1]octane-2,1′-cyclopropan]-7-yl sulfate]
C (C: 16-128 μg/mL): The minimum concentration of test compounds combined with ceftazidime (8 μg/mL) for bacteriostasis [12] | The minimum concentration of test compounds combined with ceftazidime (8 μg/mL) for bacteriostasis [14]
A (A: <8 μg/mL): The minimum concentration of test compounds combined with imipenem (4 μg/mL) for bacteriostasis [1] | The minimum concentration of test compounds combined with imipenem (4 μg/mL) for bacteriostasis [2] | The minimum concentration of test compounds combined with imipenem (4 μg/mL) for bacteriostasis [3] | The minimum concentration of test compounds combined with imipenem (4 μg/mL) for bacteriostasis [4] | The minimum concentration of test compounds combined with imipenem (4 μg/mL) for bacteriostasis [5] | The minimum concentration of test compounds combined with imipenem (4 μg/mL) for bacteriostasis [7] | The minimum concentration of test compounds combined with imipenem (4 μg/mL) for bacteriostasis [8] | The minimum concentration of test compounds combined with ceftazidime (8 μg/mL) for bacteriostasis [9] | The minimum concentration of test compounds combined with ceftazidime (8 μg/mL) for bacteriostasis [10] | The minimum concentration of test compounds combined with ceftazidime (8 μg/mL) for bacteriostasis [11] | The minimum concentration of test compounds combined with ceftazidime (8 μg/mL) for bacteriostasis [13] | The minimum concentration of test compounds combined with ceftazidime (8 μg/mL) for bacteriostasis [15] | The minimum concentration of test compounds combined with ceftazidime (8 μg/mL) for bacteriostasis [16]
B (B: 8-16 μg/mL): The minimum concentration of test compounds combined with imipenem (4 μg/mL) for bacteriostasis [6]

NC(=O)[C@@H]1CC[C@@H]2CN1C(=O)N2OS(=O)(=O)O [Avibactam, reference compound]
C (C: 16-128 μg/mL): The minimum concentration of test compounds combined with imipenem (4 μg/mL) for bacteriostasis [4] | The minimum concentration of test compounds combined with ceftazidime (8 μg/mL) for bacteriostasis [12]
A (A: <8 μg/mL): The minimum concentration of test compounds combined with imipenem (4 μg/mL) for bacteriostasis [1] | The minimum concentration of test compounds combined with imipenem (4 μg/mL) for bacteriostasis [2] | The minimum concentration of test compounds combined with imipenem (4 μg/mL) for bacteriostasis [3] | The minimum concentration of test compounds combined with imipenem (4 μg/mL) for bacteriostasis [5] | The minimum concentration of test compounds combined with imipenem (4 μg/mL) for bacteriostasis [6] | The minimum concentration of test compounds combined with imipenem (4 μg/mL) for bacteriostasis [7] | The minimum concentration of test compounds combined with imipenem (4 μg/mL) for bacteriostasis [8] | The minimum concentration of test compounds combined with ceftazidime (8 μg/mL) for bacteriostasis [9] | The minimum concentration of test compounds combined with ceftazidime (8 μg/mL) for bacteriostasis [10] | The minimum concentration of test compounds combined with ceftazidime (8 μg/mL) for bacteriostasis [11] | The minimum concentration of test compounds combined with ceftazidime (8 μg/mL) for bacteriostasis [13] | The minimum concentration of test compounds combined with ceftazidime (8 μg/mL) for bacteriostasis [14] | The minimum concentration of test compounds combined with ceftazidime (8 μg/mL) for bacteriostasis [15] | The minimum concentration of test compounds combined with ceftazidime (8 μg/mL) for bacteriostasis [16]
